According to patent publication US8802597B2, “Herbicidal pyrimidines” (E I du Pont de Nemours and Company, priority 2003, dated 2014):
Where two headings read alike, the source gives them in different places.

Tests used:
Assay in all cases: Test C pre/postemergence
Format in all cases: in vivo
[1] = system: cocklebur (Xanthium strumarium); settings: Xanthium strumarium; for pest or weed control at 16 g/ha: 16 g ai/ha; for pest or weed control at 31 g/ha: 31 g ai/ha; for pest or weed control at 62 g/ha: 62 g ai/ha; for pest or weed control at 125 g/ha: 125 g ai/ha
Procedure, shortened: (§1)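 Pre: seeds planted, sprayed same day. Post: 1- to 4-leaf plants (2–18 cm). Formulation: non-phytotoxic solvent + surfactant. Greenhouse 12–14 d; visual % control vs untreated, 0–100.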

[2] = system: common (oilseed) sunflower (Helianthus annuus); settings: Helianthus annuus, pre-emergence, Preemergence, read-out: Plant response rating, Sunflower
Procedure, shortened: as §1

[3] = system: common ragweed (Ambrosia elatior); settings: Ambrosia artemisiifolia; for pest or weed control at 16 g/ha: 16 g ai/ha; for pest or weed control at 31 g/ha: 31 g ai/ha; for pest or weed control at 62 g/ha: 62 g ai/ha; for pest or weed control at 125 g/ha: 125 g ai/ha
Procedure, shortened: as §1

[4] = system: crabgrass (Digitaria sanguinalis); settings: Digitaria sanguinalis; for pest or weed control at 16 g/ha: 16 g ai/ha; for pest or weed control at 31 g/ha: 31 g ai/ha; for pest or weed control at 62 g/ha: 62 g ai/ha; for pest or weed control at 125 g/ha: 125 g ai/ha
Procedure, shortened: as §1

[5] = system: eastern black nightshade (Solanum ptycanthum); settings: Solanum, pre-emergence, Preemergence, read-out: Plant response rating, Nightshade
Procedure, shortened: as §1

[6] = system: giant foxtail (Setaria faberii); settings: Setaria faberi; for pest or weed control at 125 g/ha: 125 g ai/ha; for pest or weed control at 16 g/ha: 16 g ai/ha; for pest or weed control at 31 g/ha: 31 g ai/ha; for pest or weed control at 62 g/ha: 62 g ai/ha
Procedure, shortened: as §1

[7] = system: kochia (Kochia scoparia); settings: Bassia scoparia; for pest or weed control at 16 g/ha: 16 g ai/ha; for pest or weed control at 31 g/ha: 31 g ai/ha; for pest or weed control at 62 g/ha: 62 g ai/ha; for pest or weed control at 125 g/ha: 125 g ai/ha
Procedure, shortened: as §1

[8] = system: morningglory (Ipomoea coccinea); settings: Ipomoea; for pest or weed control at 16 g/ha: 16 g ai/ha; for pest or weed control at 31 g/ha: 31 g ai/ha; for pest or weed control at 62 g/ha: 62 g ai/ha; for pest or weed control at 125 g/ha: 125 g ai/ha
Procedure, shortened: as §1

[9] = system: pigweed (Amaranthus retroflexus); settings: Amaranthus retroflexus; for pest or weed control at 16 g/ha: 16 g ai/ha; for pest or weed control at 31 g/ha: 31 g ai/ha; for pest or weed control at 62 g/ha: 62 g ai/ha; for pest or weed control at 125 g/ha: 125 g ai/ha
Procedure, shortened: as §1

[10] = system: velvetleaf (Abutilon theophrasti); settings: Abutilon theophrasti; for pest or weed control at 16 g/ha: 16 g ai/ha; for pest or weed control at 31 g/ha: 31 g ai/ha; for pest or weed control at 62 g/ha: 62 g ai/ha; for pest or weed control at 125 g/ha: 125 g ai/ha
Procedure, shortened: as §1

[11] = system: woolly cupgrass (Eriochloa villosa); settings: Eriochloa villosa; for pest or weed control at 16 g/ha: 16 g ai/ha; for pest or weed control at 31 g/ha: 31 g ai/ha; for pest or weed control at 62 g/ha: 62 g ai/ha; for pest or weed control at 125 g/ha: 125 g ai/ha
Procedure, shortened: as §1

[12] = system: yellow nutsedge (Cyperus esculentus); settings: Cyperus; for pest or weed control at 16 g/ha: 16 g ai/ha; for pest or weed control at 31 g/ha: 31 g ai/ha; for pest or weed control at 62 g/ha: 62 g ai/ha; for pest or weed control at 125 g/ha: 125 g ai/ha
Procedure, shortened: as §1

[13] = post-emergence, Postemergence, read-out: Plant response rating (scale of 0 to 100), Cocklebur
[14] = post-emergence, Postemergence, scale 0 to 100 (0 no effect, 100 complete control), read-out: Cocklebur plant response rating
[15] = pre-emergence, Preemergence, scale 0 to 100, 0 no effect, 100 complete control, read-out: Plant response rating, Cocklebur
[16] = 16 g ai/ha, scale 0 to 100, 0 no effect, 100 complete control
[17] = 31 g ai/ha, scale 0 to 100, 0 no effect, 100 complete control
[18] = 62 g ai/ha, scale 0 to 100, 0 no effect, 100 complete control
[19] = post-emergence, Postemergence, read-out: Plant response rating (scale of 0 to 100), Ragweed
[20] = post-emergence, Postemergence, scale 0 to 100 (0 no effect, 100 complete control), read-out: Ragweed plant response rating
[21] = pre-emergence, Preemergence, scale 0 to 100, 0 no effect, 100 complete control, read-out: Plant response rating, Ragweed
[22] = post-emergence, Postemergence, read-out: Plant response rating (scale of 0 to 100), Crabgrass
[23] = post-emergence, Postemergence, scale 0 to 100 (0 no effect, 100 complete control), read-out: Crabgrass plant response rating
[24] = pre-emergence, Preemergence, scale 0 to 100, 0 no effect, 100 complete control, read-out: Plant response rating, Crabgrass
[25] = post-emergence, Postemergence, scale 0 to 100 (0 no effect, 100 complete control), read-out: Foxtail, Giant plant response rating
[26] = post-emergence, Postemergence, read-out: Plant response rating (scale of 0 to 100), Foxtail, Giant
[27] = pre-emergence, Preemergence, scale 0 to 100, 0 no effect, 100 complete control, read-out: Plant response rating, Foxtail, Giant
[28] = post-emergence, Postemergence, read-out: Plant response rating (scale of 0 to 100), Kochia
[29] = post-emergence, Postemergence, scale 0 to 100 (0 no effect, 100 complete control), read-out: Kochia plant response rating
[30] = pre-emergence, Preemergence, scale 0 to 100, 0 no effect, 100 complete control, read-out: Plant response rating, Kochia
[31] = post-emergence, Postemergence, read-out: Plant response rating (scale of 0 to 100), Morningglory
[32] = post-emergence, Postemergence, scale 0 to 100 (0 no effect, 100 complete control), read-out: Morningglory plant response rating
[33] = pre-emergence, Preemergence, scale 0 to 100, 0 no effect, 100 complete control, read-out: Plant response rating, Morningglory
[34] = post-emergence, Postemergence, read-out: Plant response rating (scale of 0 to 100), Pigweed
[35] = post-emergence, Postemergence, scale 0 to 100 (0 no effect, 100 complete control), read-out: Pigweed plant response rating
[36] = pre-emergence, Preemergence, scale 0 to 100, 0 no effect, 100 complete control, read-out: Plant response rating, Pigweed
[37] = post-emergence, Postemergence, read-out: Plant response rating (scale of 0 to 100), Velvetleaf
[38] = post-emergence, Postemergence, scale 0 to 100 (0 no effect, 100 complete control), read-out: Velvetleaf plant response rating
[39] = pre-emergence, Preemergence, scale 0 to 100, 0 no effect, 100 complete control, read-out: Plant response rating, Velvetleaf
[40] = post-emergence, Postemergence, read-out: Plant response rating (scale of 0 to 100), Cupgrass, Woolly
[41] = post-emergence, Postemergence, scale 0 to 100 (0 no effect, 100 complete control), read-out: Cupgrass, Woolly plant response rating
[42] = pre-emergence, Preemergence, scale 0 to 100, 0 no effect, 100 complete control, read-out: Plant response rating, Cupgrass, Woolly
[43] = post-emergence, Postemergence, read-out: Plant response rating (scale of 0 to 100), Nutsedge, Yellow
[44] = post-emergence, Postemergence, scale 0 to 100 (0 no effect, 100 complete control), read-out: Nutsedge, Yellow plant response rating
[45] = pre-emergence, Preemergence, scale 0 to 100, 0 no effect, 100 complete control, read-out: Plant response rating, Nutsedge, Yellow

COC(=O)c1nc(C2CC2)nc(N)c1F [Compound 25]
pest or weed control at 16 g/ha [1, 13]: 70%
pest or weed control at 31 g/ha [1, 13]: 85%
pest or weed control at 62 g/ha [1, 14]: 90%
pest or weed control at 125 g/ha [1, 14]: 90%
pest or weed control at 16 g/ha [1, 15]: 0%
pest or weed control at 31 g/ha [1, 15]: 20%
pest or weed control at 62 g/ha [1, 15]: 60%
pest or weed control at 125 g/ha ([1]; pre-emergence, Preemergence, scale 0 to 100, read-out: Plant response rating, Cocklebur): 85%
pest or weed control at 16 g/ha [2, 16]: 5%
pest or weed control at 31 g/ha [2, 17]: 60%
pest or weed control at 62 g/ha [2, 18]: 75%
pest or weed control at 125 g/ha ([2]; 125 g ai/ha, scale 0 to 100): 90%
pest or weed control at 16 g/ha [3, 19]: 40%
pest or weed control at 31 g/ha [3, 19]: 50%
pest or weed control at 62 g/ha [3, 20]: 65%
pest or weed control at 125 g/ha [3, 20]: 70%
pest or weed control at 16 g/ha [3, 21]: 0%
pest or weed control at 31 g/ha [3, 21]: 70%
pest or weed control at 62 g/ha [3, 21]: 70%
pest or weed control at 125 g/ha ([3]; pre-emergence, Preemergence, scale 0 to 100, read-out: Plant response rating, Ragweed): 85%
pest or weed control at 16 g/ha [4, 22]: 0%
pest or weed control at 31 g/ha [4, 22]: 0%
pest or weed control at 62 g/ha [4, 23]: 30%
pest or weed control at 125 g/ha [4, 23]: 50%
pest or weed control at 16 g/ha [4, 24]: 0%
pest or weed control at 31 g/ha [4, 24]: 0%
pest or weed control at 62 g/ha [4, 24]: 0%
pest or weed control at 125 g/ha ([4]; pre-emergence, Preemergence, scale 0 to 100, read-out: Plant response rating, Crabgrass): 0%
pest or weed control at 16 g/ha [5, 16]: 0%
pest or weed control at 31 g/ha [5, 17]: 0%
pest or weed control at 62 g/ha [5, 18]: 30%
pest or weed control at 125 g/ha ([5]; 125 g ai/ha, scale 0 to 100): 75%
pest or weed control at 125 g/ha [6, 25]: 30%
pest or weed control at 16 g/ha [6, 26]: 0%
pest or weed control at 31 g/ha [6, 26]: 0%
pest or weed control at 62 g/ha [6, 25]: 5%
pest or weed control at 16 g/ha [6, 27]: 0%
pest or weed control at 31 g/ha [6, 27]: 0%
pest or weed control at 62 g/ha [6, 27]: 0%
pest or weed control at 125 g/ha ([6]; pre-emergence, Preemergence, scale 0 to 100, read-out: Plant response rating, Foxtail, Giant): 0%
pest or weed control at 16 g/ha [7, 28]: 10%
pest or weed control at 31 g/ha [7, 28]: 80%
pest or weed control at 62 g/ha [7, 29]: 85%
pest or weed control at 125 g/ha [7, 29]: 85%
pest or weed control at 16 g/ha [7, 30]: 0%
pest or weed control at 31 g/ha [7, 30]: 0%
pest or weed control at 62 g/ha [7, 30]: 5%
pest or weed control at 125 g/ha ([7]; pre-emergence, Preemergence, scale 0 to 100, read-out: Plant response rating, Kochia): 70%
pest or weed control at 16 g/ha [8, 31]: 90%
pest or weed control at 31 g/ha [8, 31]: 90%
pest or weed control at 62 g/ha [8, 32]: 90%
pest or weed control at 125 g/ha [8, 32]: 90%
pest or weed control at 16 g/ha [8, 33]: 0%
pest or weed control at 31 g/ha [8, 33]: 0%
pest or weed control at 62 g/ha [8, 33]: 50%
pest or weed control at 125 g/ha ([8]; pre-emergence, Preemergence, scale 0 to 100, read-out: Plant response rating, Morningglory): 90%
pest or weed control at 16 g/ha [9, 34]: 50%
pest or weed control at 31 g/ha [9, 34]: 50%
pest or weed control at 62 g/ha [9, 35]: 80%
pest or weed control at 125 g/ha [9, 35]: 100%
pest or weed control at 16 g/ha [9, 36]: 0%
pest or weed control at 31 g/ha [9, 36]: 30%
pest or weed control at 62 g/ha [9, 36]: 35%
pest or weed control at 125 g/ha ([9]; pre-emergence, Preemergence, scale 0 to 100, read-out: Plant response rating, Pigweed): 85%
pest or weed control at 16 g/ha [10, 37]: 5%
pest or weed control at 31 g/ha [10, 37]: 20%
pest or weed control at 62 g/ha [10, 38]: 45%
pest or weed control at 125 g/ha [10, 38]: 45%
pest or weed control at 16 g/ha [10, 39]: 0%
pest or weed control at 31 g/ha [10, 39]: 0%
pest or weed control at 62 g/ha [10, 39]: 0%
pest or weed control at 125 g/ha ([10]; pre-emergence, Preemergence, scale 0 to 100, read-out: Plant response rating, Velvetleaf): 40%
pest or weed control at 16 g/ha [11, 40]: 0%
pest or weed control at 31 g/ha [11, 40]: 0%
pest or weed control at 62 g/ha [11, 41]: 0%
pest or weed control at 125 g/ha [11, 41]: 30%
pest or weed control at 16 g/ha [11, 42]: 0%
pest or weed control at 31 g/ha [11, 42]: 0%
pest or weed control at 62 g/ha [11, 42]: 0%
pest or weed control at 125 g/ha ([11]; pre-emergence, Preemergence, scale 0 to 100, read-out: Plant response rating, Cupgrass, Woolly): 50%
pest or weed control at 16 g/ha [12, 43]: 0%
pest or weed control at 31 g/ha [12, 43]: 0%
pest or weed control at 62 g/ha [12, 44]: 0%
pest or weed control at 125 g/ha [12, 44]: 0%
pest or weed control at 16 g/ha [12, 45]: 0%
pest or weed control at 31 g/ha [12, 45]: 0%
pest or weed control at 62 g/ha [12, 45]: 0%
pest or weed control at 125 g/ha ([12]; pre-emergence, Preemergence, scale 0 to 100, read-out: Plant response rating, Nutsedge, Yellow): 0%
